Test results: patent publication US7282507B2, “Indole derivatives as selective androgen receptor modulators (SARMS)” (Janssen Pharmaceutica N.V., priority 2004, dated 2007)
Several values for one entry are separate records, joined by “and”; a condition that tells them apart may be missing. Equal entries are not always repeated. Where two headings read alike, the source gives them in different places.

Assays:
[1] = biological target: T1, androgen receptor (AdEasy+rAR, COS-7 cells) (Rattus norvegicus, UniProt P15207); assay: COS-7 Whole-Cell Androgen Receptor Binding Assay, Adenovirus Transduction; details: for % Inhibition, COS Binding / inhibition at 3 µM: concentration of 3000 nM; for % Inhibition, COS Binding: 3 µM
T1 construct: expressed in transfected cells; host or cells: COS-7 cells transduced with adenovirus AdEasy+rAR
T1 sequence (P15207 1-902): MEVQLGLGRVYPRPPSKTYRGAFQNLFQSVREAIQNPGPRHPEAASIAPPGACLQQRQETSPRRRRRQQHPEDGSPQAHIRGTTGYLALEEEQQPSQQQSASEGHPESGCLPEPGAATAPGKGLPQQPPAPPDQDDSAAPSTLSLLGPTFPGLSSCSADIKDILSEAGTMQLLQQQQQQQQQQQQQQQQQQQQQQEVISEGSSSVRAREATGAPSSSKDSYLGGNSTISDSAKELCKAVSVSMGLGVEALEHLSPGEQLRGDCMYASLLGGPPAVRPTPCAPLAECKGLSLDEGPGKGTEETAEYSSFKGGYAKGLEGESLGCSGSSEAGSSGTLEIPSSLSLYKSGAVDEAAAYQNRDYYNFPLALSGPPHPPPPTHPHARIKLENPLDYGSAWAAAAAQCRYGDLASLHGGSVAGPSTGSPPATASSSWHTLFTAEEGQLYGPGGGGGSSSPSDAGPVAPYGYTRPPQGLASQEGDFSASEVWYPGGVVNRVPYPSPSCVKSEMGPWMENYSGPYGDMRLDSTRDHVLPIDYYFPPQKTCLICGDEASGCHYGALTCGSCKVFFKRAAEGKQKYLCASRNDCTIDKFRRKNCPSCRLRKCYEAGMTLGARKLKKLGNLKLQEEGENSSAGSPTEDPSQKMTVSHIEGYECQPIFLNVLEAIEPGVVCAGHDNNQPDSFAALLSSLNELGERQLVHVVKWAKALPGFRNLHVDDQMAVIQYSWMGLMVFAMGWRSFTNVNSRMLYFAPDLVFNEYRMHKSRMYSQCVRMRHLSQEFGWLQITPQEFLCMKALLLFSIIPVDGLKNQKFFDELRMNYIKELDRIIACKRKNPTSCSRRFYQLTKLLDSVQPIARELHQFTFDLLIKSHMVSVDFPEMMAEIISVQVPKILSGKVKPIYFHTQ
Experimental: COS-7 cells were plated in 96-well plates at 20,000 cells per well, in a solution of DMEM/F12 (GIBCO) containing 10% (v/v) charcoal-treated fetal bovine serum (Hyclone) and lacking phenol red. The cells were then incubated overnight at 37° C. in 5% (v/v) humidified CO2.
Test compound solutions were prepared by diluting the test compound in 100% (v/v) DMSO, if necessary.
Next, 1 mL of DMEM/F12 lacking phenol red was pipetted into each of the wells of a 2-mL 96-well assay block. […] The wells were carefully mixed by pipette.
In a 15 mL or 50 mL sterile centrifuge tube, a dilution in DMEM/F12 of the adenovirus AdEasy+rAR at a moi of 1:50 per well was prepared.
The medium was removed from the 96-well plates by inversion and the plates dried very briefly, inverted, on a sterile towel. As soon as possible after medium removal, 40 μL of the diluted test compound was added to each well, in duplicate. […] The plates were then incubated for 48 hours at 37° C. in 5% (v/v) humidified CO2.
The medium was removed from the above incubated plates by inversion and dried. Each well was then washed with 0.35 mL of 1× PBS. The PBS was then removed from the plates by inversion and the plates dried.
To each well was then added 50 μL of 0.5% (v/v) Triton X-100 (Sigma) in 1× PBS and the plates placed on a rotary shaker for 5 min. The contents of each well were then transferred to an OptiPlate-96 (Packard) scintillation plate. To each well was then added 0.2 mL of Microscint-20 (Packard) and the wells counted on a TopCount (Packard).
Percent inhibition was determined by testing dilutions of the test compound (usually duplicates of 10 μM) in the binding assay. Counts per well were measured and percents of inhibition determined. […] Counts per well were measured and IC50s determined by linear regression.

[2] = biological target: T2, androgen receptor (AdEasy+rAR, L929 cells) (Rattus norvegicus, UniProt P15207); assay: L929 Androgen Receptor Functional Assay, Adenovirus Transduction; type: cell-based; details: for % Activity, L929 androgen receptor functional assay / EC50: agonist testing; for IC50: antagonist testing with R1881; for % Inhibition, L929 androgen receptor functional assay: antagonist testing with R1881, 3000 nM; for inhibition at 3 µM: L929, antagonist testing with R1881, 3000 nM
T2 construct: expressed in transfected cells; host or cells: L929 cells transduced with adenovirus AdEasy+rAR
T2 sequence (P15207 1-902): T1 sequence (P15207 1-902)
How it was run: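 L929 cells in phenol red-free, charcoal-stripped serum medium transduced with AdEasy+rAR (moi 1:500) and exposed 48 h at 37 °C to compound alone (agonist mode) or with R1881 (antagonist mode; 2.5 nM as the 2.5× dilution).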

[3] = test system: testosterone-enhanced ventral prostate and seminal vesicle weights; assay: Ventral Prostate and Seminal Vesicle Weight in vivo Assay; design: species or system rat; details: immature castrated male Sprague Dawley rats, once daily for five days, usually orally 40 mg/kg, with testosterone propionate 2 mg/kg s.c. Note: key: 'active' if the non weight adjusted prostate weight was ≦40 mg or the % Inhibition prostate weight, body weight adjusted was ≧40% @ 2 mg/day dosage; ID50's, if determined, of ≦15 mg/day also indicated an 'active' compound; listed herein as 'inactive' as they did not meet the specified criteria defined above.
How it was run: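 Immature castrated male Sprague Dawley rats (~50 g) were dosed once daily for five days with compound, usually orally at 40 mg/kg in cyclodextrin or methylcellulose vehicle. Testosterone propionate was co-dosed subcutaneously at 2 mg/kg. On day six, ventral prostate and seminal vesicle wet weights were measured; activity was judged on prostate weight or body-weight-adjusted % inhibition.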

[4] = read-out: IC50 (nM), COS Binding

In the case of `CCSCC(C)(O)c1[nH]c2cc(C(F)(F)F)c(C#N)cc2c1C` (single isomer, unassigned) [Compound 234, 2-(2-Ethylsulfanyl-1-hydroxy-1-methyl-ethyl)-3-methyl-6-trifluoromethyl-1H-indole-5-carbonitrile], the “% Inhibition, COS Binding” value [1] is reported as 71%, the IC50 [1, 4] is reported as 539 nM and the “% Activity, L929 androgen receptor functional assay” value (“% Activity” below) ([2]; 3000 nM, 3 µM) is reported as −1%. For the same molecule, the IC50 [2] was 215 nM, the “% Inhibition, L929 androgen receptor functional assay” value ([2]; 3 µM) was 99% and the “active / inactive: inhibition of testosterone-enhanced prostate weight” value (“active / inactive: inhibition” below) [3] was “inactive”.
Molecule `CCC(O)(CSCC(F)(F)F)c1cc2cc([N+](=O)[O-])c(C(F)(F)F)cc2[nH]1` (centres unmarked) [Compound 185] has an inhibition at 3 µM [1] of 92%, an IC50 [1, 4] of 61 nM and an inhibition at 3 µM [2] of 97%. The “% Activity” value ([2]; 3000 nM) was 2% and the “active / inactive: inhibition” value [3] was “active”.
`CC(O)(CS(C)(=O)=O)c1cc2cc(Cl)c(C(F)(F)F)cc2n1S(C)(=O)=O` (centres unmarked) [Compound 137] showed an IC50 ([1]; IC50 (nM), COS Binding) of over 1500 nM, an inhibition at 3 µM [1] of 73% and an inhibition at 3 µM [2] of 77%. The “% Activity” value ([2]; 3000 nM) was 0% and the “active / inactive: inhibition” value [3] was “inactive”.
With `CCSCC(C)(O)c1cc2cc(C#N)c(C(F)(F)F)cc2[nH]1` (single isomer, unassigned) [Compound 217, 2-(2-Ethylsulfanyl-1-hydroxy-1-methyl-ethyl)-6-trifluoromethyl-1H-indole-5-carbonitrile] the “% Inhibition, COS Binding” value [1] was 38% and 61% and 69%, the inhibition at 3 µM [2] was 87% and the EC50 [2] was over 8000 nM. For the same molecule, the “% Activity” value ([2]; 3000 nM) was 5%, the “% Activity” value ([2]; @ 8000 nM) was 0 @ 8000 nM % and the IC50 [2] was 969 nM and 415 nM and 810 nM. For the same molecule, the “% Inhibition, L929 androgen receptor functional assay” value ([2]; 3 µM) was 80% and the “active / inactive: inhibition” value [3] was “active”.
In the case of `CCCCSCC(C)(O)c1cc2cc([N+](=O)[O-])c(C(F)(F)F)cc2[nH]1` (centres unmarked) [Compound 200], the inhibition at 3 µM [1] is reported as 97%, the inhibition at 3 µM [2] is reported as 96% and the “% Activity” value ([2]; 3000 nM) is reported as 1%. The “active / inactive: inhibition” value [3] was “inactive”.
With `CCS(=O)(=O)CC(C)(O)c1cc2cc(C#N)c(C(F)(F)F)cc2[nH]1` (single isomer, unassigned) [Compound 222, 2-(2-Ethanesulfonyl-1-hydroxy-1-methyl-ethyl)-6-trifluoromethyl-1H-indole-5-carbonitrile] the inhibition at 3 µM [1] was 42%, the IC50 [1, 4] was 1580 nM and the inhibition at 3 µM [2] was 61%. The EC50 [2] was over 8000 nM, the “% Activity” value ([2]; @ 8000 nM) was 0 @ 8000 nM % and the IC50 [2] was 2410 nM. The “active / inactive: inhibition” value [3] was “active”.
In the case of `CCS(=O)(=O)CC(C)(O)c1[nH]c2cc(C(F)(F)F)c(C#N)cc2c1C` (single isomer, unassigned) [Compound 251, 2-(2-Ethanesulfonyl-1-hydroxy-1-methyl-ethyl)-3-methyl-6-trifluoromethyl-1H-indole-5-carbonitrile], the inhibition at 3 µM [1] is reported as 85%, the IC50 [1, 4] is reported as 220 nM and the “% Activity” value ([2]; 3000 nM, 3 µM) is reported as −1%. For the same molecule, the IC50 [2] was 200 nM and the “active / inactive: inhibition” value [3] was “active”.
With `CC(O)(CSc1ccc(C(=O)O)cc1)c1cc2cc(Cl)c(C(F)(F)F)cc2[nH]1` (centres unmarked) [Compound 133] the IC50 ([1]; IC50 (nM), COS Binding) was over 1500 nM, the inhibition at 3 µM [1] was 65% and the inhibition at 3 µM [2] was 19%. The “% Activity” value ([2]; 3000 nM) was −4% and the “active / inactive: inhibition” value [3] was “inactive”.
`CSCC(C)(O)c1cc2cc([N+](=O)[O-])c(C(F)(F)F)cc2[nH]1` (racemic) [Compound 139] was tested, and the inhibition at 3 µM [1] was 94%, the “% Inhibition, COS Binding” value [1] was 97% and the IC50 [1, 4] was 63 nM and 252 nM. For the same molecule, the “% Activity” value ([2]; 3000 nM, 3 µM) was 0% and 1% and the “active / inactive: inhibition” value [3] was “active”.
With `CCSCC(C)(O)c1[nH]c2cc(C(F)(F)F)c(C#N)cc2c1C` (centres unmarked) [Compound 219] the IC50 [1, 4] was 6.2 nM, the inhibition at 3 µM [2] was 103% and the “% Activity” value ([2]; 3000 nM) was −3%. For the same molecule, the “active / inactive: inhibition” value [3] was “inactive”.
With `CCCS(=O)(=O)CC(C)(O)c1cc2cc([N+](=O)[O-])c(C(F)(F)F)cc2[nH]1` (centres unmarked) [Compound 177] the inhibition at 3 µM [1] was 90%, the IC50 [1, 4] was 88 nM and the inhibition at 3 µM [2] was 89%. The “% Activity” value ([2]; 3000 nM) was 2% and the “active / inactive: inhibition” value [3] was “active”.
Work on `CC(O)(CSCc1cccs1)c1cc2cc([N+](=O)[O-])c(C(F)(F)F)cc2[nH]1` (centres unmarked) [Compound 197] yielded an inhibition at 3 µM [1] of 86%, an IC50 [1, 4] of over 3000 nM and an inhibition at 3 µM [2] of -26%. For the same molecule, the “% Activity” value ([2]; 3000 nM) was 2% and the “active / inactive: inhibition” value [3] was “inactive”.
`CCSCC(C)(O)c1cc2cc([N+](=O)[O-])cc(C(F)(F)F)c2[nH]1` (centres unmarked) [Compound 212] showed an inhibition at 3 µM [1] of 86%, an IC50 [1, 4] of 98 nM and an inhibition at 3 µM [2] of 101%. For the same molecule, the “% Activity” value ([2]; 3000 nM) was −3% and the “active / inactive: inhibition” value [3] was “active”.
`CCC(O)(CS(=O)(=O)CC(F)(F)F)c1[nH]c2cc(C(F)(F)F)c([N+](=O)[O-])cc2c1Cl` (centres unmarked) [Compound 199] showed an inhibition at 3 µM [1] of 82%, an IC50 [1, 4] of 310 nM and an inhibition at 3 µM [2] of 59%. For the same molecule, the “% Activity” value ([2]; 3000 nM) was 2% and the “active / inactive: inhibition” value [3] was “inactive”.
For `CN(C)c1ccc(SCC(C)(O)c2cc3cc(Cl)c(C(F)(F)F)cc3[nH]2)cc1` (centres unmarked) [Compound 124], the IC50 [1, 4] was over 3000 nM, the “% Activity” value ([2]; 3000 nM) was −4% and the “active / inactive: inhibition” value [3] was “inactive”.
For `CCSCC(C)(O)c1cc2cc(C#N)c(C(F)(F)F)cc2n1C` (centres unmarked) [Compound 236], the inhibition at 3 µM [1] was 83%, the IC50 [1, 4] was 105 nM and the inhibition at 3 µM [2] was 103%. The “% Activity” value ([2]; 3000 nM) was 2%, the IC50 [2] was 821 nM and the “active / inactive: inhibition” value [3] was “active”.
With `CCSCC(C)(O)c1cc2cc(F)c(C(F)(F)F)cc2[nH]1` (racemic) [Compound 206] the “% Inhibition, COS Binding” value [1] was −40%, the “% Activity” value ([2]; 3000 nM, 3 µM) was 5% and the “active / inactive: inhibition” value [3] was “active”.
In the case of `CCSCC(C)(O)c1[nH]c2cc(C(F)(F)F)c(C#N)cc2c1C` (single isomer, unassigned) [Compound 233, 2-(2-Ethylsulfanyl-1-hydroxy-1-methyl-ethyl)-3-methyl-6-trifluoromethyl-1H-indole-5-carbonitrile], the “% Inhibition, COS Binding” value [1] is reported as 95% and 81%, the IC50 [1, 4] is reported as 45.6 nM and the inhibition at 3 µM [2] is reported as 97%. The “% Activity” value ([2]; 3000 nM, 3 µM) was 0%, the IC50 [2] was 69.2 nM and the “active / inactive: inhibition” value [3] was “active”.
